Experimental data reported in ChEMBL document CHEMBL3045503, “Mode of Action of Herbicides Affecting Carotenogenesis” (J Pestic Sci, 1996).

Columns and labels:
Nicotiana tabacum [1] = test: Inhibition of colored carotenoid formation in transgenic Nicotiana tabacum (tobacco) ET4-208; format: functional, organism-based; details: read-out: I50
Nicotiana tabacum [2] = test: Inhibition of colored carotenoid formation in Nicotiana tabacum (tobacco); format: functional, organism-based; details: read-out: I50
Pantoea ananatis [3] = test: Resistance factor, ratio of I50 for Pantoea ananatis NFZ42 phytoene desaturase mutant to I50 for wild-type Erwinia uredovora phytoene desaturase by cellular assay
Pantoea ananatis [4] = test: Resistance factor, ratio of I50 for Pantoea ananatis NFZ20 phytoene desaturase mutant to I50 for wild-type Erwinia uredovora phytoene desaturase by cellular assay
Pantoea ananatis [5] = test: Resistance factor, ratio of I50 for Pantoea ananatis NFZ4 phytoene desaturase mutant to I50 for wild-type Erwinia uredovora phytoene desaturase by cellular assay
Pantoea ananatis [6] = test: Resistance factor, ratio of I50 for Pantoea ananatis NFZ42 phytoene desaturase mutant to I50 for wild-type Erwinia uredovora phytoene desaturase by cell-free assay
Pantoea ananatis [7] = test: Resistance factor, ratio of I50 for Pantoea ananatis NFZ20 phytoene desaturase mutant to I50 for wild-type Erwinia uredovora phytoene desaturase by cell-free assay
Pantoea ananatis [8] = test: Resistance factor, ratio of I50 for Pantoea ananatis NFZ4 phytoene desaturase mutant to I50 for wild-type Erwinia uredovora phytoene desaturase by cell-free assay

| Compound | IC50 (Nicotiana tabacum [1]) [nM] | IC50 (Nicotiana tabacum [2]) [nM] | Ratio (Pantoea ananatis [3]) | Ratio (Pantoea ananatis [4]) | Ratio (Pantoea ananatis [5]) | Ratio (Pantoea ananatis [6]) | Ratio (Pantoea ananatis [7]) | Ratio (Pantoea ananatis [8]) |
| --- | --- | --- | --- | --- | --- | --- | --- | --- |
| CC1(C)CC(=O)C(C(=O)c2ccc(Cl)cc2[N+](=O)[O-])C(=O)C1 | 48 | 42 | – | – | – | – | – | – |
| C=C(Cl)COc1cc(C)nc(NC(C)C)n1 | > 100000 | 4500 | – | – | – | – | – | – |
| CCC(COc1cccc(C(F)(F)F)c1)OC(=O)NCCc1ccccc1 (configuration not stated) | > 100000 | 1300 | – | – | – | – | – | – |
| CCOC(=O)C1=C(c2ccccc2)OC(CC)C(C)C1=O (configuration not stated) | > 100000 | 740 | – | – | – | – | – | – |
| Nc1nc[nH]n1 [AMITROLE] | 72000 | 68000 | – | – | – | – | – | – |
| O=C(Nc1ccc(F)cc1F)c1cccnc1Oc1cccc(C(F)(F)F)c1 [DIFLUFENICAN] | > 100000 | 38 | – | – | – | – | – | – |
| O=c1c(-c2ccccc2)c[nH]cc1-c1cccc(C(F)(F)F)c1 [FLURIDONE] | – | – | 0.5 | 8 | 4 | 1 | 8 | – |
| CNC1=C(c2cccc(C(F)(F)F)c2)C(=O)C(c2ccccc2)O1 (configuration not stated) [FLURTAMONE] | > 100000 | 47 | – | – | – | – | – | – |
| CNc1cnn(-c2cccc(C(F)(F)F)c2)c(=O)c1Cl [NORFLURAZONE] | > 100000 | 330 | 40 | 20 | 24 | 23 | 12 | 15 |
